Assay results from ChEMBL document CHEMBL1201862, “PubChem BioAssay data set” (2004).
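Cultured in 96-well plates, cells were exposed to test compound for 48 hours across five concentrations. GI50: concentration for 50% inhibition of growth.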 Active and inactive are the calls of the source. No stated cut-off is given here; in the data, active = GI50 up to about 1.1 µM and inactive = higher.

Legend:
Experiment in all cases: DTP human tumour cell line panel, 48 h
HCT-15 = tested on: HCT-15
Malme-3M = tested on: Malme-3M
DLD-1 = tested on: DLD-1
OVCAR-4 = tested on: OVCAR-4
SK-MEL-5 = tested on: SK-MEL-5
UACC-62 = tested on: UACC-62
A498 = tested on: A498
SF-268 = tested on: SF-268
HL-60 = tested on: HL-60
NCI-H522 = tested on: NCI-H522
DMS-114 = tested on: DMS-114
SK-MEL-28 = tested on: SK-MEL-28
RXF 393 = tested on: RXF 393
M19-MEL = tested on: M19-MEL
CAKI-1 = tested on: CAKI-1
SN12C = tested on: SN12C
IGROV-1 = tested on: IGROV-1
RPMI-8226 = tested on: RPMI-8226
A549 = tested on: A549
M14 = tested on: M14
SF-295 = tested on: SF-295
HOP-18 = tested on: HOP-18
DMS-273 = tested on: DMS-273
HOP-62 = tested on: HOP-62
HOP-92 = tested on: HOP-92
SF-539 = tested on: SF-539
LXFL 529 = tested on: LXFL 529
LOX IMVI = tested on: LOX IMVI
UO-31 = tested on: UO-31
SR = tested on: SR
KM-20L2 = tested on: KM-20L2
CCRF-CEM = tested on: CCRF-CEM
HCC 2998 = tested on: HCC 2998
EKVX = tested on: EKVX
HCT-116 = tested on: HCT-116
SW-620 = tested on: SW-620
K562 = tested on: K562
MOLT-4 = tested on: MOLT-4
786-0 = tested on: 786-0
ACHN = tested on: ACHN
NCI-H23 = tested on: NCI-H23
SNB-75 = tested on: SNB-75
SK-OV-3 = tested on: SK-OV-3
TK-10 = tested on: TK-10
NCI-H460 = tested on: NCI-H460
UACC-257 = tested on: UACC-257
SNB-78 = tested on: SNB-78
HT-29 = tested on: HT-29
OVCAR-8 = tested on: OVCAR-8
U-251 = tested on: U-251
SNB-19 = tested on: SNB-19

Measured: GI50

CCCCCCCCCOC(=S)NCCCCC
23.9 µM: HCT-15
inactive: Malme-3M 29.8 µM | DLD-1 35.6 µM | OVCAR-4 33.9 µM | SK-MEL-5 21.5 µM | UACC-62 29.2 µM | A498 24.3 µM | SF-268 37.2 µM | HL-60 16.6 µM | NCI-H522 20.3 µM | DMS-114 21.7 µM | SK-MEL-28 38.7 µM | RXF 393 19.9 µM | M19-MEL 39.3 µM | CAKI-1 27.8 µM | SN12C 26.2 µM | IGROV-1 38.4 µM | RPMI-8226 19.5 µM | A549 28.2 µM | M14 28.6 µM | SF-295 47.1 µM | HOP-18 33.4 µM | DMS-273 25.5 µM | HOP-62 26.4 µM | HOP-92 20.7 µM | SF-539 20.8 µM | LXFL 529 33.3 µM | LOX IMVI 15.6 µM | UO-31 17.2 µM | SR 20.5 µM | KM-20L2 23.8 µM | CCRF-CEM 22.9 µM | HCC 2998 34.4 µM | EKVX 35.2 µM | HCT-116 22.2 µM | SW-620 32.7 µM | K562 27 µM | MOLT-4 19 µM | 786-0 35.6 µM | ACHN 29.1 µM | NCI-H23 26.7 µM | SNB-75 42.3 µM | SK-OV-3 29.4 µM | TK-10 18.4 µM | NCI-H460 28 µM | UACC-257 24.8 µM | SNB-78 40.6 µM | HT-29 26.8 µM | OVCAR-8 38.7 µM | U-251 21.7 µM | SNB-19 35.1 µM
